Data on four compounds can be found in ChEMBL document CHEMBL1159293, “Additional bioactive acetogenins, annomutacin and (2,4-trans and cis)-10R-annonacin-A-ones, from the leaves of Annona muricata” (J Nat Prod, 1995).

Structures are written as SMILES. Values after ≈ are worked out from the molar mass of the structure shown.

The test system of one data set is MCF7. The data set is described as follows: Cytotoxicity against human MCF7 cells after 7 days by MTT assay. Type of data set: functional. To be noted: MCF7, 168 h, read-out: ED50 (the source's name). (In general: Tetrazolium dyes change colour on reduction, which living cells bring about.)
The next data set deals with A549. The data set is described as follows: Cytotoxicity against human A549 cells after 7 days by MTT assay. Type of data set: functional. The following applies: A549, 168 h, read-out: ED50 (the source's name).
A short description of data set [1]: (§1) Toxicity to brine shrimp. Type of data set: organism-based. To be noted: artemia, in vivo.
For the next data set, the system named is HT-29. The data set is described as follows: Cytotoxicity against human HT-29 cells after 7 days by MTT assay. The following applies: HT-29, 168 h, read-out: ED50 (the source's name). Type of data set: functional.
The next data set deals with Artemia. The description is as §1. Type of data set: organism-based. The following applies: in vivo.

Take `CCCCCCCCCCCC[C@H](O)[C@H]1CC[C@H]([C@H](O)CCCC[C@H](O)CCCCC[C@@H]2C[C@@H](CC(C)=O)C(=O)O2)O1`: the EC50 with MCF7 is 0.57 µg/mL (≈ 0.955 µM); in the data set with A549, 0.174 µg/mL (≈ 0.292 µM); in the data set with HT-29, over 1 µg/mL. For the same compound, the LC50 in data set [1] was determined as 0.112 µg/mL (≈ 0.188 µM).
For `CCCCCCCCCCCC[C@H](O)[C@H]1CC[C@H]([C@H](O)CCCC[C@H](O)CCCCC[C@@H]2C[C@H](CC(C)=O)C(=O)O2)O1`, in that order: 0.57 µg/mL (≈ 0.955 µM), 0.174 µg/mL (≈ 0.292 µM), over 1 µg/mL and 0.112 µg/mL (≈ 0.188 µM).
With `CCCCCCCCCCCC[C@H](O)[C@@H]1CC[C@@H]([C@@H](O)CCCCCCC(O)CCCCC[C@@H](O)CC2=C[C@H](C)OC2=O)O1` (stereo partly drawn) [ANNOMONTACIN], the EC50 in the data set with MCF7 was over 1 µg/mL; in the data set with A549, 0.0157 µg/mL (≈ 0.0251 µM); with HT-29, over 1 µg/mL. In addition, the LC50 in the data set on Artemia was determined as 3.91 ×10⁻² ug/ml.
`COc1cccc2c1C(=O)c1c(O)c3c(c(O)c1C2=O)C[C@@](O)(C(=O)CO)C[C@@H]3O[C@H]1C[C@H](N)[C@H](O)[C@H](C)O1` [DOXORUBICIN] showed an LC50 in data set [1] of 0.313 µg/mL (≈ 0.576 µM).
